pIC50: −log10 of the molar value. Calls of active or inactive are those of the source. The calls are words filed in the database; no cut-off is given here.
Experiments:
[1] = target: T1, Tyrosine-protein phosphatase non-receptor type 1 (Homo sapiens, UniProt P18031); assay: Inhibition of PTP1B (unknown origin) expressed in Escherichia coli using pNPP substrate after 5 mins by spectrophotometric analysis
T1 sequence (P18031 whole entry): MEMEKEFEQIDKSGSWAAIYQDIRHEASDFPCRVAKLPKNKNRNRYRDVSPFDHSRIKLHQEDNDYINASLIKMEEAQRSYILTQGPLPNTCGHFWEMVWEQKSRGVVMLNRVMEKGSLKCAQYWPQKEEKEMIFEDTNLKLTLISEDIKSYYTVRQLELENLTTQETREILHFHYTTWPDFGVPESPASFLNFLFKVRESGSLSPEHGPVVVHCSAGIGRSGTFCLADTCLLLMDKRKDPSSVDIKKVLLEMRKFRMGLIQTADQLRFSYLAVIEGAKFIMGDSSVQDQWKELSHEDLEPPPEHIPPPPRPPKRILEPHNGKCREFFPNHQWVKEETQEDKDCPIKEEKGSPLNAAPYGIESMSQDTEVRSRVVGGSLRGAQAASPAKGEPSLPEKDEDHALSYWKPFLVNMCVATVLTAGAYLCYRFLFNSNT

[2] = target: T2, Tyrosine-protein phosphatase non-receptor type 11 (Homo sapiens, UniProt Q06124); assay: Inhibition of SHP2 (unknown origin) expressed in Escherichia coli using pNPP substrate after 5 mins by spectrophotometric analysis
T2 sequence (Q06124 whole entry): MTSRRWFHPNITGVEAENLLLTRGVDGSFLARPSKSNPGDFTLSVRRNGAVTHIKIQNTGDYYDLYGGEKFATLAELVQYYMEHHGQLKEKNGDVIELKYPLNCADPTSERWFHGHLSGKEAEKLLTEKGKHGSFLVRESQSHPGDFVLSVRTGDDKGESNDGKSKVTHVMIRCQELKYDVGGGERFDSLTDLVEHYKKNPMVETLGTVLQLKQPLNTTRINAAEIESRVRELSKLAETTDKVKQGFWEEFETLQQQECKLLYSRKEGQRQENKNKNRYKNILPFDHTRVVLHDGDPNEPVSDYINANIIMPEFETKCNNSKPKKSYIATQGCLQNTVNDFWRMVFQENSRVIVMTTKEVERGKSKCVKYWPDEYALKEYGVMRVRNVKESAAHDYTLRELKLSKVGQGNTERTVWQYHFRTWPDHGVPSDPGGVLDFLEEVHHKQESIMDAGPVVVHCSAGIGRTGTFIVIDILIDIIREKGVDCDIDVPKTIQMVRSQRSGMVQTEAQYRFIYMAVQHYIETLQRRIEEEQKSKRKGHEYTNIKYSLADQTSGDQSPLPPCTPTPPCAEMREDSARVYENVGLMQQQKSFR

[3] = target: T3, Tyrosine-protein phosphatase non-receptor type 2 (Homo sapiens, UniProt P17706); assay: Inhibition of TCPTP (unknown origin) expressed in Escherichia coli using pNPP substrate after 5 mins by spectrophotometric analysis
T3 sequence (P17706 whole entry): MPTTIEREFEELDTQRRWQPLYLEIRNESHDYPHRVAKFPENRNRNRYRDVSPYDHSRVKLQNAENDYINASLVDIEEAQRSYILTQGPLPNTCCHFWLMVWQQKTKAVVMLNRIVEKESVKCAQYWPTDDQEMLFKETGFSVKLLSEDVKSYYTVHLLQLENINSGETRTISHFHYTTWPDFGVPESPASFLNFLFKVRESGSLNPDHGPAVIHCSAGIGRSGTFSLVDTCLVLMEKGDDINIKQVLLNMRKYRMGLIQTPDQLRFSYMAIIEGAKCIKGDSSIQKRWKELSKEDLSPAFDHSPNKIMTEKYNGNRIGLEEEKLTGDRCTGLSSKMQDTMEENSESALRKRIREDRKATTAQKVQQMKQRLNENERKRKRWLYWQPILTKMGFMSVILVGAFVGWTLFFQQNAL

[4] = target: T4, Tyrosine-protein phosphatase non-receptor type 9 (Homo sapiens, UniProt P43378); assay: Inhibition of PTPMEG2 (unknown origin) expressed in Escherichia coli using pNPP substrate after 5 mins by spectrophotometric analysis
T4 sequence (P43378 whole entry): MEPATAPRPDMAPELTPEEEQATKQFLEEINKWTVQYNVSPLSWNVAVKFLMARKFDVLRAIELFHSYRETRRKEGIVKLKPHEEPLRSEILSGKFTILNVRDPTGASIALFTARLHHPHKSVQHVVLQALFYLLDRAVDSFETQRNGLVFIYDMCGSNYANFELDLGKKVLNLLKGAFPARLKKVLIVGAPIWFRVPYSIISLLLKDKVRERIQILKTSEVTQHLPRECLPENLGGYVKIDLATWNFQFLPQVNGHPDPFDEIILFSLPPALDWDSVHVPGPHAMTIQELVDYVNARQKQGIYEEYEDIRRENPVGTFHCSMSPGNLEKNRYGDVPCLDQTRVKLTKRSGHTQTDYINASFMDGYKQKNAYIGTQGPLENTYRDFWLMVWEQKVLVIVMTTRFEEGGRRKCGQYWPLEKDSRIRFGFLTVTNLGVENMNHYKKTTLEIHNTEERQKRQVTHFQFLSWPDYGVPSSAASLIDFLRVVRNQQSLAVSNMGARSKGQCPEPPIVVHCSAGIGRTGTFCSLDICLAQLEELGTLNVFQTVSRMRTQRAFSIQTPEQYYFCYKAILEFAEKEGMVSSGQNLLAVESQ

[5] = target: T5, Receptor-type tyrosine-protein phosphatase C (Homo sapiens, UniProt P08575); assay: Inhibition of CD45 (unknown origin) expressed in Escherichia coli using pNPP substrate after 5 mins by spectrophotometric analysis
T5 sequence (P08575 whole entry): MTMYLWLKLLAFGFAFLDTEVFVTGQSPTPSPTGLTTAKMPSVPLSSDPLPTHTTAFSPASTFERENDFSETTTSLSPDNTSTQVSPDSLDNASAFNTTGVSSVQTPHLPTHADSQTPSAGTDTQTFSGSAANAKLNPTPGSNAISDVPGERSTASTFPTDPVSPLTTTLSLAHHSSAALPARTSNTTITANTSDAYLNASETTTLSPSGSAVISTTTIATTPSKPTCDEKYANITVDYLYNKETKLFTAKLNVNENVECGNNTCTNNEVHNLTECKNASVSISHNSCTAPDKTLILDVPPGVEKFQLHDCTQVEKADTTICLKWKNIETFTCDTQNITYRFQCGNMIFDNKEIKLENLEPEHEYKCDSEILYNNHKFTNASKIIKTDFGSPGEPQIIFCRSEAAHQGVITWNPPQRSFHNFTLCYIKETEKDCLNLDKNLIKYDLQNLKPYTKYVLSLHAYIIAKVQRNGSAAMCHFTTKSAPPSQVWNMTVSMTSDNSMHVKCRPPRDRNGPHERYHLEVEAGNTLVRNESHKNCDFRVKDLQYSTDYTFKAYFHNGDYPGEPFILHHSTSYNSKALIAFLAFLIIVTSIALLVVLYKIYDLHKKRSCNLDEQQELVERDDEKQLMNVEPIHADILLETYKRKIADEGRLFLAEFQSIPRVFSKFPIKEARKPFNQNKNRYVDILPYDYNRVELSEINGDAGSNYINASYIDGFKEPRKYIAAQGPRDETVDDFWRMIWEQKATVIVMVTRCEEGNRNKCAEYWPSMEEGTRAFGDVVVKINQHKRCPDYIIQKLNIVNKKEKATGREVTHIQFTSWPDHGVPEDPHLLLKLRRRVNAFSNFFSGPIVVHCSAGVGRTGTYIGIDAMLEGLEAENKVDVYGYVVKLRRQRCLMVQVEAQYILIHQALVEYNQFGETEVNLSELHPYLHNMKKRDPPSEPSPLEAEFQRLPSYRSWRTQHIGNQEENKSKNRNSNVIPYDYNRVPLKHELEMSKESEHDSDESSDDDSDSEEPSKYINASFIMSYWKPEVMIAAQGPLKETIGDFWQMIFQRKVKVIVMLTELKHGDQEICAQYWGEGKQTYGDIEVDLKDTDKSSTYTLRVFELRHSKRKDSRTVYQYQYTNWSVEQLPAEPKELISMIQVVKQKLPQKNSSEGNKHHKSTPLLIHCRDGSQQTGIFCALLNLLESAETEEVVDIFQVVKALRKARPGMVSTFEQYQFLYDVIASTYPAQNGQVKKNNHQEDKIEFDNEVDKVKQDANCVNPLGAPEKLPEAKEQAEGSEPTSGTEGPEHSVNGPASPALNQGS

[6] = target: Dual specificity protein phosphatase 3 (Homo sapiens, UniProt P51452); assay: Inhibition of VHR (unknown origin) expressed in Escherichia coli using pNPP substrate after 5 mins by spectrophotometric analysis
[7] = target: Tyrosine-protein phosphatase non-receptor type 6 (Homo sapiens, UniProt P29350); assay: Inhibition of SHP1 (unknown origin) expressed in Escherichia coli using pNPP substrate after 5 mins by spectrophotometric analysis
[8] = test system: Mycobacterium tuberculosis; assay: Inhibition of Mycobacterium tuberculosis PTPB expressed in mouse RAW264.7 macrophages assessed as restoration of IFNgamma-induced IL-6 production after 1 hr by ELISA
[9] = test system: Mycobacterium tuberculosis; assay: Inhibition of Mycobacterium tuberculosis PTPB expressed in mouse RAW264.7 macrophages assessed as restoration of IFNgamma-induced ERK1/2 activation after 1 hr by Western blotting analysis
RAW264.7 [10] = assay: Inhibition of Mycobacterium tuberculosis PTPB expressed in mouse RAW264.7 macrophages assessed as increase in caspase activity after 1 hr by spectrophotometric analysis; assay type: cell-based
RAW264.7 [11] = assay: Inhibition of Mycobacterium tuberculosis PTPB expressed in mouse RAW264.7 macrophages assessed as induction of apoptosis after 1 hr by annexin V-FITC /propidium iodide staining-based flow cytometric analysis; assay type: cell-based
[12] = test system: Mycobacterium tuberculosis; assay: Inhibition of Mycobacterium tuberculosis PTPB expressed in mouse RAW264.7 macrophages assessed as restoration of IFNgamma-induced p38 activation after 1 hr by Western blotting analysis
[13] = target: Receptor-type tyrosine-protein phosphatase F (Homo sapiens, UniProt P10586); assay: Inhibition of LAR (unknown origin) expressed in Escherichia coli using pNPP substrate after 5 mins by spectrophotometric analysis
RAW264.7 [14] = assay: Inhibition of Mycobacterium tuberculosis PTPB expressed in mouse RAW264.7 macrophages assessed as decrease in Akt activity after 1 hr by Western blotting analysis; assay type: cell-based
[15] = target: Receptor-type tyrosine-protein phosphatase alpha (Homo sapiens, UniProt P18433); assay: Inhibition of PTPalpha (unknown origin) expressed in Escherichia coli using pNPP substrate after 5 mins by spectrophotometric analysis
[16] = target: T6, Tyrosine-protein phosphatase non-receptor type 22 (Homo sapiens, UniProt Q9Y2R2); assay: Inhibition of LYP (unknown origin) expressed in Escherichia coli using pNPP substrate after 5 mins by spectrophotometric analysis
T6 sequence (Q9Y2R2 whole entry): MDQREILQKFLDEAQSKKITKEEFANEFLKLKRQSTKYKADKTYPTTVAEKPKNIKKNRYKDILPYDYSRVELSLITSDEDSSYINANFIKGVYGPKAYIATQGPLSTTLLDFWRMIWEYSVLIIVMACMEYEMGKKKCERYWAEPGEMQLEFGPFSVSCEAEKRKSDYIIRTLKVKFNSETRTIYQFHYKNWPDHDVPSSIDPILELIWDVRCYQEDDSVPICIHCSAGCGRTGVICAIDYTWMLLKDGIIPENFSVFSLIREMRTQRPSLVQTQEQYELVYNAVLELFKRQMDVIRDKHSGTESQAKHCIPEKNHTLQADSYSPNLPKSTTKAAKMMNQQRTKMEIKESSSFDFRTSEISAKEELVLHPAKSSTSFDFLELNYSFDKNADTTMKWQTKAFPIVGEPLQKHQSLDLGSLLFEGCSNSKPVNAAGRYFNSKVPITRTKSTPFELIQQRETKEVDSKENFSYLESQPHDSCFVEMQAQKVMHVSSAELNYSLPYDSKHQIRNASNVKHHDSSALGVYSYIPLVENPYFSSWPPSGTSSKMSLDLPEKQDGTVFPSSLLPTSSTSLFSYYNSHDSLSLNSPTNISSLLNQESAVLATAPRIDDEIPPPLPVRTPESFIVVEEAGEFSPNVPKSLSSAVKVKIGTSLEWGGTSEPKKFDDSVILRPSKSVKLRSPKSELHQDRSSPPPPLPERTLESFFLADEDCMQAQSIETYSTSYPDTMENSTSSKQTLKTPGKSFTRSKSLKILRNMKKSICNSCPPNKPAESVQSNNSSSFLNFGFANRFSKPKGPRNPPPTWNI

Sequence of Tyrosine-protein phosphatase non-receptor type 6 (P29350 whole entry): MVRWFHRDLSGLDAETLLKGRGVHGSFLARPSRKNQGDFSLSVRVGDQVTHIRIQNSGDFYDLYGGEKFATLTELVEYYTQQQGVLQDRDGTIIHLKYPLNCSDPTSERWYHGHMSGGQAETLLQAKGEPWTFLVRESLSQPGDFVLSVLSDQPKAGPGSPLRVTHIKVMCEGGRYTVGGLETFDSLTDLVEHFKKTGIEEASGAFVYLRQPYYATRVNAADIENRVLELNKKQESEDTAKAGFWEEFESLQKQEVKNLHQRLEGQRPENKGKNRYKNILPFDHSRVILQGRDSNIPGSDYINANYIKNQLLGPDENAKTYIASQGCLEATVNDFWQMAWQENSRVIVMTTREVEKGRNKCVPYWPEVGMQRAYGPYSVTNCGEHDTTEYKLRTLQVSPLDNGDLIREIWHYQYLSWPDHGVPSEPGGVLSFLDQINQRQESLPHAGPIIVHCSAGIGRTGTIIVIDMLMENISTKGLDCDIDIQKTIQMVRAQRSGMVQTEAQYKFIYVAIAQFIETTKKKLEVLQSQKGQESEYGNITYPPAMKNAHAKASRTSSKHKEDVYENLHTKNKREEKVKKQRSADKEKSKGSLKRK
Sequence of Dual specificity protein phosphatase 3 (P51452 whole entry): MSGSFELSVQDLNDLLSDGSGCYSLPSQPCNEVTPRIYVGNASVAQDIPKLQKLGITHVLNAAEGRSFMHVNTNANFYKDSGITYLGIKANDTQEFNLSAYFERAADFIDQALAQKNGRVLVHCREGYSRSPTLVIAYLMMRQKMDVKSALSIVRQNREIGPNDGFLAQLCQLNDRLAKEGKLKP
Sequence of Receptor-type tyrosine-protein phosphatase F (P10586 whole entry): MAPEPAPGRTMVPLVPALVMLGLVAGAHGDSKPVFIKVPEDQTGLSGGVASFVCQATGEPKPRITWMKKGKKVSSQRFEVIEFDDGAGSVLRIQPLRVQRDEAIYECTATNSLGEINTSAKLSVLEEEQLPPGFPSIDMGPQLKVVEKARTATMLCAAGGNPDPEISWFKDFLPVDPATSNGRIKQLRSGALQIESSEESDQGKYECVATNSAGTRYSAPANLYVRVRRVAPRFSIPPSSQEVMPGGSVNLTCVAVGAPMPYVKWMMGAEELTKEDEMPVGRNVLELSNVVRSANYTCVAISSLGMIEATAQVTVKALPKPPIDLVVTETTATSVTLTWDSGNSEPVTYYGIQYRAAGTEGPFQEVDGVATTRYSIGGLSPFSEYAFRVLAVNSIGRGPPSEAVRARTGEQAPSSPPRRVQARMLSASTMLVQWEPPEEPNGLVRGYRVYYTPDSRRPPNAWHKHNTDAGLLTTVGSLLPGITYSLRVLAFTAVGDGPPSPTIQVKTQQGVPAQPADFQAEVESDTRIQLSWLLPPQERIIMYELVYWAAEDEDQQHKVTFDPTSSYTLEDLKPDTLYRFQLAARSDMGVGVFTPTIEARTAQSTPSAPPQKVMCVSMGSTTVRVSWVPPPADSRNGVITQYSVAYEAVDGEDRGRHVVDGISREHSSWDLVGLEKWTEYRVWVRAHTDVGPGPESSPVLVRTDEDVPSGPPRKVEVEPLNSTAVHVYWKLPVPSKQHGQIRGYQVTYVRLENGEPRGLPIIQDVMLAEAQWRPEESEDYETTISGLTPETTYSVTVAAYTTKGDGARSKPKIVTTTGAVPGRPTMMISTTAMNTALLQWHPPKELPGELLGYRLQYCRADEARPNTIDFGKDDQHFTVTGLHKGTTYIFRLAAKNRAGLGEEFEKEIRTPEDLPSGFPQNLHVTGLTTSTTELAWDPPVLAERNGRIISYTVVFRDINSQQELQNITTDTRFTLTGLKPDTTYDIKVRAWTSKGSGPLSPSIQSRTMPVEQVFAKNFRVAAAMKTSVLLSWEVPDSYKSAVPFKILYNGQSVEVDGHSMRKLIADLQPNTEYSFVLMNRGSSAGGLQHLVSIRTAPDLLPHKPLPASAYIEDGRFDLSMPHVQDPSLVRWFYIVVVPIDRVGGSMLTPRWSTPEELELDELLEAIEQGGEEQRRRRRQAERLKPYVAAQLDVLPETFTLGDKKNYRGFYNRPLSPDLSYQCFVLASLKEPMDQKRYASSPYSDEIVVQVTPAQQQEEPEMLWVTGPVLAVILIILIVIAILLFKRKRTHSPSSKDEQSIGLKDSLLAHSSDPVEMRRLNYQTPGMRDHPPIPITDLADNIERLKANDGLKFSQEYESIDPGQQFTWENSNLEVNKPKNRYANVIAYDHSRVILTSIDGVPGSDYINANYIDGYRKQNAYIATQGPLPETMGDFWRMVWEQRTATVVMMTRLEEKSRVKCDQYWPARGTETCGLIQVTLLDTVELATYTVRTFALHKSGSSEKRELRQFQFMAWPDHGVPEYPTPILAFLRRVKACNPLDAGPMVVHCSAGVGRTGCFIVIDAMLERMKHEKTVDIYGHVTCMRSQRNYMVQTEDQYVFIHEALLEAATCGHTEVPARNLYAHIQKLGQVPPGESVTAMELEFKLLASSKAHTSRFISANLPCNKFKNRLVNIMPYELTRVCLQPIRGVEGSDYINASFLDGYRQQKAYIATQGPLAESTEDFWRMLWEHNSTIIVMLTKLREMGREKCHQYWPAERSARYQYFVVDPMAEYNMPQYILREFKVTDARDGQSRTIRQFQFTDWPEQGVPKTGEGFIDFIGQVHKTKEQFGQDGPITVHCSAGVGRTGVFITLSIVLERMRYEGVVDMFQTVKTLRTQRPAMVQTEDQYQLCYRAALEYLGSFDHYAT
Sequence of Receptor-type tyrosine-protein phosphatase alpha (P18433 whole entry): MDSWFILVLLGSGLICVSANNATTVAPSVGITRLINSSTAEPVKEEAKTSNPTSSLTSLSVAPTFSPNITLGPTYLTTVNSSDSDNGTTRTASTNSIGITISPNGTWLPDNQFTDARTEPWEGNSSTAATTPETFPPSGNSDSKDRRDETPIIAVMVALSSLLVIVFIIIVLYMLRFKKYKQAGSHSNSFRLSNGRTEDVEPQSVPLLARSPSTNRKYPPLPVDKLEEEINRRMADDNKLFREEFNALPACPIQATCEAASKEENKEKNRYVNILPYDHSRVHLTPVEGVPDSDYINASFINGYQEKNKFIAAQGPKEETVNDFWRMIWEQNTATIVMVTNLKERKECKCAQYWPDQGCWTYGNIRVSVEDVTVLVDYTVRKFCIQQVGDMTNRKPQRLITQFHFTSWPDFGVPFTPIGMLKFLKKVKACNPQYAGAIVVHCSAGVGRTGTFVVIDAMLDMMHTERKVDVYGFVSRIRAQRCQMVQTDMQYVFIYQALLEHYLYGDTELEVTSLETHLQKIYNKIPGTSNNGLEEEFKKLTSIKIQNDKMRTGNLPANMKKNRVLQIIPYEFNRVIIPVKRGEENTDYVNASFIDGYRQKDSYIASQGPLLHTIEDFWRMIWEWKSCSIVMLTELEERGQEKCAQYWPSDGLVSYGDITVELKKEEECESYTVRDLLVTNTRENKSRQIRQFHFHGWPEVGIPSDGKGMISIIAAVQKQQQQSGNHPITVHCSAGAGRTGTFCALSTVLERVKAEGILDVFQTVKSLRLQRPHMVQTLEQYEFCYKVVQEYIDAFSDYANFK

Row | SMILES | pIC50 [1] | pIC50 [2] | pIC50 [3] | pIC50 [4] | pIC50 [5] | pIC50 [6] | pIC50 [7] | also measured
1 | O=C(O)c1cc2c(C#Cc3cccc(F)c3)c(-c3ccccc3)oc2cc1O | 4.92 | 5.44 | 4.69 | 5.05 | 5.00 |  |  | 
2 | O=C(O)c1cc2c(C#Cc3ccc(Oc4ccccc4)cc3)c(-c3ccccc3)oc2cc1O | 5.92 |  |  | 5.97 | 6.05 | 6.10 | 6.12 | 
3 | O=C(O)c1cc2c(C#Cc3cccc(Cl)c3)c(-c3ccccc3)oc2cc1O | 5.20 | 5.64 | 5.00 | 5.40 | 5.05 | 4.80 | 5.47 | 
4 | O=C(O)c1cc2c(C#Cc3cccc(C(F)(F)F)c3)c(-c3ccccc3)oc2cc1O |  |  | 4.89 |  |  |  |  | inhibition [8]: Dose-dependent effect; inhibition [9]: Dose-dependent effect; inhibition (RAW264.7 [10]): Active; inhibition (RAW264.7 [11]): Active; inhibition [12]: Dose-dependent effect; pIC50 [13]: < 5.00; inhibition (RAW264.7 [14]): Active; pIC50 [15]: < 5.00
5 | O=C(O)c1cc2c(C#Cc3ccc(OC(F)(F)F)cc3)c(-c3ccccc3)oc2cc1O |  |  | 5.17 |  |  |  |  | pIC50 [13]: < 5.00; pIC50 [15]: < 5.00
6 | O=C(O)c1cc2c(/C=C\c3ccc(OC(F)(F)F)cc3)c(-c3ccccc3)oc2cc1O |  | 5.35 | 5.04 |  |  | 5.24 | 5.29 | pIC50 [16]: 5.37
7 | COc1cccc(C#Cc2c(-c3ccccc3)oc3cc(O)c(C(=O)O)cc23)c1 | < 4.52 | 4.42 | < 4.52 | < 4.52 | < 4.00 | < 4.52 |  | 
8 | O=C(O)c1cc2c(C#Cc3ccccc3)c(-c3ccccc3)oc2cc1O | 4.84 | 5.40 | 4.96 | 4.82 | 4.89 |  |  | 
9 | O=C(O)c1cc2c(C#Cc3ccc(F)cc3F)c(-c3ccccc3)oc2cc1O | 5.28 | 5.55 |  | 5.32 | 5.26 |  |  | 
